Biological target: T1, GPBAR1 (TGR5) (Homo sapiens, UniProt Q8TDU6)
T1 sequence (Q8TDU6 1-330): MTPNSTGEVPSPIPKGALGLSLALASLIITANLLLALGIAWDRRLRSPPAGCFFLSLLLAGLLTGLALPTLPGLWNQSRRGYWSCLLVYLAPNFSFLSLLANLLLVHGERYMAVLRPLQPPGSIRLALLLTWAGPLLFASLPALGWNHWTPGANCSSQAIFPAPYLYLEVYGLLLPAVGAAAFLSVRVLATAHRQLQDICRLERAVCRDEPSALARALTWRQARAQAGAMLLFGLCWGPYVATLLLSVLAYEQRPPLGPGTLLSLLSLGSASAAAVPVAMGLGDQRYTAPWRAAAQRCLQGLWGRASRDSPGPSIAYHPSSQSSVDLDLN
Experiment: AlphaScreen cAMP assay in CHO cells expressing human GPBAR1; no response in parental CHO cells

- EC50: 9 nM
Substance: BIX02694
